In PMC3914206:

Columns and labels:
Assay type in all cases: binding
Parameters in all cases: KINOMEscan: ABL1(F317L)-phosphorylated / KINOMEscan: ABL1(H396P)-nonphosphorylated / KINOMEscan: ABL1(H396P)-phosphorylated / KINOMEscan: ABL1(M351T)-phosphorylated / KINOMEscan: ABL1(T315I)-phosphorylated / KINOMEscan: ABL1-nonphosphorylated / KINOMEscan: ABL1-phosphorylated / KINOMEscan: ACVR2A / KINOMEscan: ACVR2B / KINOMEscan: ADCK3 / KINOMEscan: ADCK4 / KINOMEscan: AKT1 / KINOMEscan: AKT3 / KINOMEscan: ALK / KINOMEscan: ARK5 / KINOMEscan: AURKA / KINOMEscan: AURKC / KINOMEscan: BIKE / KINOMEscan: BMPR1A / KINOMEscan: BMPR1B / KINOMEscan: BMX / KINOMEscan: BRK / KINOMEscan: BRSK1 / KINOMEscan: BRSK2 / KINOMEscan: CAMK1 / KINOMEscan: CAMK1D / KINOMEscan: CAMK1G / KINOMEscan: CAMK2A / KINOMEscan: CAMK2B / KINOMEscan: AAK1 / KINOMEscan: CAMK2D / KINOMEscan: CAMK2G / KINOMEscan: ABL1(F317I)-nonphosphorylated / KINOMEscan: ABL1(F317I)-phosphorylated / KINOMEscan: ABL1(F317L)-nonphosphorylated: unit: % Ctrl
panel of 442 kinases [1] = target: T1, panel of 442 kinases (Homo sapiens, UniProt P35968); details: kinase VEGFR2; compound concentration 10 µM
T1 construct: purchased KINOMEscan
Text: (§1) We assessed the selectivity of members of this scaffold using the KINOMEscan methodology across a near comprehensive panel of 442 kinases [[18,27]].

panel of 442 kinases [2] = target: T2, panel of 442 kinases (Homo sapiens, UniProt Q9UKE5); details: kinase TNIK; compound concentration 10 µM
T2 construct: purchased KINOMEscan
Text: as §1

panel of 442 kinases [3] = target: T3, panel of 442 kinases (Homo sapiens, UniProt P51813); details: Compound Concentration 10 µM
T3 construct: purchased KINOMEscan
T3 sequence (P51813 1-675): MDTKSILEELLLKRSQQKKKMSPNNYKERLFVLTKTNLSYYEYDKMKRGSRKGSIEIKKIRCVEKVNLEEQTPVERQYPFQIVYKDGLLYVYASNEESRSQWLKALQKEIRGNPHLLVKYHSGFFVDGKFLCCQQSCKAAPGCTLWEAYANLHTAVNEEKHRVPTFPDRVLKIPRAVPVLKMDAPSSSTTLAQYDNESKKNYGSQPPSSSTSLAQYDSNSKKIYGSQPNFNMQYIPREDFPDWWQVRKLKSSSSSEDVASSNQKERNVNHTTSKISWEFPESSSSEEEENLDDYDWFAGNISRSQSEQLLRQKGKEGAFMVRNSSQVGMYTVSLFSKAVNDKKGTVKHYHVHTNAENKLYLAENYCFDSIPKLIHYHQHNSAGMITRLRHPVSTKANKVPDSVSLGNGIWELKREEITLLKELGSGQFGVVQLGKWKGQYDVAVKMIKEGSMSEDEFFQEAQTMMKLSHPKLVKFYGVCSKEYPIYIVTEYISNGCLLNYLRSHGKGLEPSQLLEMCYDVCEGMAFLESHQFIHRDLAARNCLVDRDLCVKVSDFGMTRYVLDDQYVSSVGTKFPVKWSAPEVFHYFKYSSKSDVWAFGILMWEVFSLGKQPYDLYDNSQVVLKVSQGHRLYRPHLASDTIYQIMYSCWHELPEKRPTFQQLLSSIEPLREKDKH
Text: as §1

T2 sequence (Q9UKE5 whole entry): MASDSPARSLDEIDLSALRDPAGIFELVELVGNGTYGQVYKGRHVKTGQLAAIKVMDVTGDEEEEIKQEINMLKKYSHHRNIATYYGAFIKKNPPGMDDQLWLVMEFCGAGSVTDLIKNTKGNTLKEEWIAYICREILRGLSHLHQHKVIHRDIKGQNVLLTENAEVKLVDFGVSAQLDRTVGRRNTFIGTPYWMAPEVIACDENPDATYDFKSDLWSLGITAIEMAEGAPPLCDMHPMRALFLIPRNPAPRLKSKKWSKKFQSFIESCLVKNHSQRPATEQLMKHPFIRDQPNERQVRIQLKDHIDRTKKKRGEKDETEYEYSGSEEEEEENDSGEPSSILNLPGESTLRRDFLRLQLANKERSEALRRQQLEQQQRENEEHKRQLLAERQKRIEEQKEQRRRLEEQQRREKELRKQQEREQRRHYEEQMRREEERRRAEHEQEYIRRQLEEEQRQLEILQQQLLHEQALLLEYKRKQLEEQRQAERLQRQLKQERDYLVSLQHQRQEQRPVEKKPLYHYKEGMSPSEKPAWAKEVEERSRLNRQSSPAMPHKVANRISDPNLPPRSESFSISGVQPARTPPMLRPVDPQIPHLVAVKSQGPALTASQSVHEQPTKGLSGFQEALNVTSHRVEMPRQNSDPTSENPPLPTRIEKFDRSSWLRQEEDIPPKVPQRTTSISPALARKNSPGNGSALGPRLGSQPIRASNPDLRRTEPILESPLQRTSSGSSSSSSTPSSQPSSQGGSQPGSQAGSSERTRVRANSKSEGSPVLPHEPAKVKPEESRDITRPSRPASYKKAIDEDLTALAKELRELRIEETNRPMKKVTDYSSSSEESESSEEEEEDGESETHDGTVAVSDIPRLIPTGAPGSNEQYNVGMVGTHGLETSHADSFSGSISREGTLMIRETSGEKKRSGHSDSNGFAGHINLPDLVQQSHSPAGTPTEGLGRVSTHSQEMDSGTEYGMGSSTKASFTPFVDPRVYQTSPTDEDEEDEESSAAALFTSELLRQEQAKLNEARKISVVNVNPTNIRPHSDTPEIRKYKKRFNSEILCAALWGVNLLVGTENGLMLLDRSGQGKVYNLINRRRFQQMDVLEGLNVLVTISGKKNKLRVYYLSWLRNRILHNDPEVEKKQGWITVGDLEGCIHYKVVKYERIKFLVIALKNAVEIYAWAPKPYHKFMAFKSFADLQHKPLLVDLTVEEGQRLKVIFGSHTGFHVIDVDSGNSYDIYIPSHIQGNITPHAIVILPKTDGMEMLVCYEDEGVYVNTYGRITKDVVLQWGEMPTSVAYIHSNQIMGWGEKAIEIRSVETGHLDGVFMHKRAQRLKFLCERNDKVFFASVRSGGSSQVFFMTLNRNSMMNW
T1 sequence (P35968 20-1356): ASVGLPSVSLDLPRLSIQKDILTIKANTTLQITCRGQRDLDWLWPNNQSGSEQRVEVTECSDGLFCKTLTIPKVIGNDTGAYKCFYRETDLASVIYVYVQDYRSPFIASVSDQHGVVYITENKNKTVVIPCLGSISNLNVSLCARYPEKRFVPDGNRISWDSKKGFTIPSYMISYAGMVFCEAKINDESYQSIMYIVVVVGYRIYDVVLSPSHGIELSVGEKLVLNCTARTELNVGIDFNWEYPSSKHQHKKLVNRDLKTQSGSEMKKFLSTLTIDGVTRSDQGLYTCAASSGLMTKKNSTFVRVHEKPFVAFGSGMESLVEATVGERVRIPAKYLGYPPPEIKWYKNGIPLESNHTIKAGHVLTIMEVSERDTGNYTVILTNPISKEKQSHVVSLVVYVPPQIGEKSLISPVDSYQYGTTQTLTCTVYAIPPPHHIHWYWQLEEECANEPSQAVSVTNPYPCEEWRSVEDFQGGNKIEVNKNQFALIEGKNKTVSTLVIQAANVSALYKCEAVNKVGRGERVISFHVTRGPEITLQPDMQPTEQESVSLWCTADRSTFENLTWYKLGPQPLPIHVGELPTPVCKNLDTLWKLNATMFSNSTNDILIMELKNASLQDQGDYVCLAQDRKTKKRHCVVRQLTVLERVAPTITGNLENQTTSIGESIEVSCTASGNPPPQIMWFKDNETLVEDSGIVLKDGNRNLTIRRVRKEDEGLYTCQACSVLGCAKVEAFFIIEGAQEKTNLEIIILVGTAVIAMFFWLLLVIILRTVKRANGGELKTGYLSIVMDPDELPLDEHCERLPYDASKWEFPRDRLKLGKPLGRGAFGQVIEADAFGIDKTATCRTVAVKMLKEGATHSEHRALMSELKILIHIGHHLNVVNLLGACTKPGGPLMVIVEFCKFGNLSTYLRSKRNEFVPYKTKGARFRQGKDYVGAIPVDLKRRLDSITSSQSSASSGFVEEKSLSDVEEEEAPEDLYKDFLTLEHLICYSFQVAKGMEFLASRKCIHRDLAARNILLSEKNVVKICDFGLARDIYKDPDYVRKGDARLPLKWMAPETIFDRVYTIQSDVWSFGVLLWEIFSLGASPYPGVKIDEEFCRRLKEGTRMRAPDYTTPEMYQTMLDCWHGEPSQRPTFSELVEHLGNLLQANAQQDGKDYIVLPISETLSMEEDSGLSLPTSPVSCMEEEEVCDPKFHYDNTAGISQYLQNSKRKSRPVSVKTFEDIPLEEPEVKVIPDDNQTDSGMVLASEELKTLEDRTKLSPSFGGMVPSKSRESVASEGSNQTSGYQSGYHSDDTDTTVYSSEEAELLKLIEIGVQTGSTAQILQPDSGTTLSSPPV

**Q.** What does the source list for `CCOc1cc(C(=O)N2CCC(N3CCN(C)CC3)CC2)ccc1Nc1ncc2c(n1)N(C1CCCC1)c1ccccc1C(=O)N2C` [Compound 26]?
**A.** % Ctrl, VEGFR2 (panel of 442 kinases [1]): 100 % Ctrl; % Ctrl, TNIK (panel of 442 kinases [2]): 94 % Ctrl; KINOMEscan: BMX (panel of 442 kinases [3]): 100

**Q.** Which results are given for `COc1cc(C(=O)N2CCC(N3CCN(C)CC3)CC2)ccc1Nc1ncc2c(n1)N1CCc3cccc(c31)C(=O)N2C` [Compound 24]?
**A.** % Ctrl, VEGFR2 (panel of 442 kinases [1]): 100 % Ctrl; % Ctrl, TNIK (panel of 442 kinases [2]): 56 % Ctrl; KINOMEscan: BMX (panel of 442 kinases [3]): 71

**Q.** Which “% Ctrl, VEGFR2” value (panel of 442 kinases [1]) does the source give for `COc1cc(C(=O)N2CCC(N3CCN(C)CC3)CC2)ccc1Nc1ncc2c(n1)N(C)c1ccccc1C(=O)N2C` [15 (LRRK2-IN-1)] here?
**A.** 84 % Ctrl

**Q.** And the “% Ctrl, TNIK” value (panel of 442 kinases [2])?
**A.** 100 % Ctrl

**Q.** And the “KINOMEscan: BMX” value (panel of 442 kinases [3])?
**A.** 87

**Q.** For `COc1cc(C(=O)N2CCC(N3CCN(C)CC3)CC2)ccc1Nc1ncc2c(n1)N(C1CCCC1)c1ccccc1C(=O)N2C` [Compound 25, 11-cyclopentyl-2-((2-methoxy-4-(4-(4-methylpiperazin-1-yl)piperidine-1-carbonyl)phenyl)amino)-5-methyl-5H-benzo[e]pyrimido[5,4-b][1,4]diazepin-6(11H)-one], which “% Ctrl, VEGFR2” value (panel of 442 kinases [1]) is on record?
**A.** 100 % Ctrl

**Q.** What about the “% Ctrl, TNIK” value (panel of 442 kinases [2]) of the same compound?
**A.** 100 % Ctrl

**Q.** And the “KINOMEscan: BMX” value (panel of 442 kinases [3])?
**A.** 91
